Laboratory results taken from patent publication US20210308120A1, “Use of Amitriptyline for Blocking Brain Hemichannels and Method for Potentiating its Effect in Vivo” (THERANEXUS, priority 2015, published 2021).

Experiments:
Cx43 hemichannels = target: T1, Cx43 hemichannels (Mus musculus, UniProt P23242); experiment: Hemichannel activity by ethidium bromide uptake in LPS-treated mouse cortical astrocyte cultures; assay type: cell-based; settings: LPS 1 μg/mL and amitriptyline 5, 10 and 20 μM, 24 hours
T1 construct: Astrocyte cultures were prepared from cortex of rats and mice as previously described; endogenous in cells; host or cells: secondary cultures of mouse cortical astrocytes, LPS-treated
Procedure: Astrocyte cultures were prepared from cortex of rats and mice as previously described (Meme et al., 2006). Cells were seeded on polyornithine coated 35 mm dishes (5×10^5 cells/dish) or into 100-mm diameter plastic dishes at the density of 3×10^6 cells/dish. After 8-10 days, when cells grown into 35 mm in diameter plastic culture dishes have reached confluence, 1 μM of cytosine-arabinoside was added to the culture medium. In addition, when cells grown into 100 mm plastic culture dishes reached confluence, they were harvested with trypsin-EDTA. Then, cells were re-plated (2×10^5 cells per well), as secondary cultures, on glass coverslips placed inside 24-round-well plate. Finally, they were grown to confluence and cytosine-arabinoside was added. Medium was changed twice a week for all cells until the experiments were carried out. Hemichannel activity was evaluated in secondary cultures of cortical astrocytes by Ethidium Bromide (EtBr) uptake as already published (Orellana et al, 2011). 24 h before experiment, cells were pretreated or not with 1 μg/ml LPS known to open Cx43 HeC. The day of experiment, cells were first preincubated in HEPES buffer solution. Then, cells were exposed to 5 μM EtBr for 10 min at room temperature. Cells were then washed with the same buffer before fixation with 4% paraformaldehyde in PBS. Fixed cells were examined at 40× with a confocal laser-scanning microscope. Stacks of 10 consecutive confocal images taken at 0.49 μm intervals were acquired. For each experimental condition, 6 images were captured and then analyzed with Image J program (NIH software). LPS was added to mouse cortical astrocytic cultures during 24 hours to open Cx43 hemichannels and amitriptyline was also added during the same time to evaluate its action on hemichannel activity, quantified by cell uptake of ethidium bromide.

[1] = Pharmacokinetics of amitriptyline/mefloquine in plasma and brain of mice (LC-MS); assay type: in vivo, mouse; settings: amitriptyline 6, 12 mg/kg, mefloquine 0.1, 0.3, 1 mg/kg i.p., 18 days, 2 hours after injection
Procedure: Data are presented as mean±SEM.
Adult male C57BL/6J mice (Charles River, L'Arbresle, France) were used. Mice were kept in collective cages for habituation to the facility for one week before experimental testing with food and water ad libitum. Mice were maintained on a light/dark cycle of 12 hours with light onset at 8h00 and with a controlled temperature of 21° C.±1° C.
Injections were done twice.
On day 18th of treatment, mice received the morning injection and samplings were done 2 hours after the injection. Mice were anesthetized just before sampling (ketamine 68 mg/kg, xylazine 10 mg/kg) and blood was collected by intracardiac puncture (Vacuette tubes, with lithium/heparin gel). The mouse was then decapitated, and the brain extracted and fast frozen in dry ice.
Vacuette tubes with blood were centrifugated (3000 rpm, 20 min), plasma recovered and stored at −80° C. until shipping in dry ice.

[2] = test system: neuropathic mice (cuff model, allodynia); experiment: Mechanical allodynia, von Frey test in sciatic nerve cuff model; assay type: in vivo, mouse
Procedure: Paw withdrawal thresholds of mice treated with either amitriptyline 6 mg/kg alone (AMIT 6) or amitriptyline 12 mg/kg alone (AMIT 12) are also shown (D). FIG. 10 (E) represents area under curve analysis.
Area under curve analysis are shown (B).
Neuropathic pain was induced to adult male C57BL/6J mice (Charles River, L'Arbresle, France) by cuffing the main branch of the right sciatic nerve (For detailed description and video illustration: Yalcin et al. 2014, J Vis Exp 89:e51608). Surgeries were performed under ketamine (68 mg/kg)/xylazine (10 mg/kg) intraperitoneal (i.p.) anesthesia (Centravet, Tadden, France). The common branch of the right sciatic nerve was exposed and a cuff of PE-20 polyethylene tubing (Harvard Apparatus, Les Ulis, France) of standardized length (2 mm) was unilaterally inserted around it (Cuff group). The shaved skin was closed using suture.
Injections were done once a day during the 17 first days of treatment, in the afternoon. As a single dose per day was ineffective, treatment was then done twice a day, morning and afternoon, from the 8 last days of treatment.
Mechanical allodynia was tested using von Frey hairs and results were expressed in grams (For detailed description and video illustration: Yalcin et al. 2014, J Vis Exp 89:e51608). Tests were done during the morning, starting at least 2 hours after lights on. Mice were placed in clear Plexiglas boxes (7 cm×9 cm×7 cm) on an elevated mesh screen. Calibrated von Frey filaments (Bioseb, Vitrolles, France) were applied to the plantar surface of each hindpaw until they just bent, in a series of ascending forces up to the mechanical threshold. Filaments were tested five times per paw and the paw withdrawal threshold was defined as the lower of two consecutive filaments for which three or more withdrawals out of the five trials were observed.
Mice were subjected to sciatic nerve cuffing and then tested with the von Frey test to evaluate allodynia quantified as pressure threshold.
Mice were subjected to sciatic nerve cuffing and then tested with the von Frey test to evaluate allodynia quantified as pressure threshold. Neuropathic mice, characterized by a decrease of pressure threshold after surgery, were then treated during 25 days and tested by the von Frey test during this period.

T1 sequence (P23242 whole entry): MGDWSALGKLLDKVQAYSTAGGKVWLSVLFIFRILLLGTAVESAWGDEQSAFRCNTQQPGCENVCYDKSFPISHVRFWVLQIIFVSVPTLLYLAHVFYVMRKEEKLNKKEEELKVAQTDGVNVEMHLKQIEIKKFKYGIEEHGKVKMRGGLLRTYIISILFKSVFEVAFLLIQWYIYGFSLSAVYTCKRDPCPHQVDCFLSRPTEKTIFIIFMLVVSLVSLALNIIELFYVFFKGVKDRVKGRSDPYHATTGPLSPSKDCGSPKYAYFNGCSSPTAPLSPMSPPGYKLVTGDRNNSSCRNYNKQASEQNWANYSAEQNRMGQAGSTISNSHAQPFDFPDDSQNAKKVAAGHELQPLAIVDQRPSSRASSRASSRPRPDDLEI

Question: For `CN(C)CCC=C1c2ccccc2CCc2ccccc21` [amitriptyline, 3-(5,6-dihydrodibenzo[2,1-b:2′,1′-f][7]annulen-11-ylidene)-N,N-dimethylpropan-1-amine], which “HC activity (ethidium bromide uptake) after LPS-induced opening” value (Cx43 hemichannels) is on record?
Answer: reversed this increase at the three tested doses

Question: What about the “Concentrations in blood and brain tissue” value [1] of the same compound?
Answer: dose-dependent

Question: What about the “Paw withdrawal threshold (von Frey)” value ([2]; amitriptyline 6 mg/kg i.p. chronic, alone) of the same compound?
Answer: no changes of paw withdrawal

Question: And the “Paw withdrawal threshold (von Frey)” value ([2]; amitriptyline 12 mg/kg i.p. chronic, in comparison with amitriptyline 6 mg/kg)?
Answer: significant increase of the paw withdrawal threshold from day 32 to day 34

Question: And the “Effective equivalent dose of amitriptyline when administered in combination with mefloquine” value ([2]; relative to active dose of amitriptyline alone)?
Answer: about 0.5
